Measurements published in patent publication US20090181910A1, “METHOD OF PREVENTION AND ALLEVIATION OF TOXICITY BY MODULATION OF IRF3” (priority 2006, published 2009).

Test system: CRBPII
Experiment: RAW 264.7 Q-PCR: CRBPII
Type: cell-based, murine
Details: RXRα overexpressing RAW 264.7 cells; FIG. 10d

Substance: polyinosinic:polycytidylic acid [polyI:C]
- LG268 induced CRBPII: unable to repress LG268 induced CRBPII
